Data taken from paper PMC12040169 (PLOS Biology, 2025).

Test: in vitro
Settings: human, hela cells, % viability

Structure (SMILES)	viability at 28.5 h, 10 µM	viability at 28.5 h, 10 µM (bulk resorufin, single well)
CS(=O)(=O)NCC1(c2ccccc2)CCN(S(=O)(=O)c2c(Cl)cccc2Cl)CC1 [CBK051633]	89.9%	
O=C(NN=C1CCCCCCCCCCC1)c1cc2ccccc2cc1O [CBK261706]	102%	
Cc1cc(C)n(C2CN(CC(=O)NCc3ccccn3)C2)n1 [CBK306238]	88.3%	
COc1ccc(S(=O)(=O)Nc2cccc(C(=O)Nc3ccc(F)cc3)c2)cc1OC [CBK038982]	71.7%	
CC1CC(Nc2ccccc2)c2ccccc2N1 (stereo not shown) [CBK057947]	86.6%	
Cc1ccc(C(=O)N(C)CCN(C)C)c(NCc2cccnc2)n1 [CBK076348]	91.5%	
O=C(c1ccco1)N1CCCC(n2c(=O)oc3ccc(Cl)cc32)C1 (stereo not shown) [CBK282892]	91.5%	
Fc1ccc(C2NC(S)=NC3=C2N2CCC3CC2)cc1 (stereo not shown) [CBK288390]	95.4%	
CCCCC(c1nnn[nH]1)n1nnc2ccccc21 (stereo not shown) [CBK023526]	93.6%	
COC(=O)Nc1ccc2c(c1)N(C(=O)CCN1CCOCC1)c1ccccc1CC2 [CBK261284C]	95.9%	
Cc1cc(C(=O)CSc2nnc(CN3CCCC3)o2)c(C)n1C1CC1 [CBK306199]	84%	
Cc1c(C(=O)N(C)Cc2cccn2C)[nH]c2ccccc12 [CBK283270]	94.6%	
CCC(NC(=O)Nc1cc(N2CCOCC2)ccc1Cl)c1nc(C)no1 (stereo not shown) [CBK306526]	87.9%	
OCCN1CC2(CCN(CCC(c3ccccc3)c3ccccc3)CC2)c2ccccc21 [CBK126765]	88.9%	
CC(C)(C)c1ccc(NC(=O)C(=O)NCCCn2ccnc2)cc1 [CBK267358]	108%	
COc1cc2c(cc1OC)/C(=C/c1ccc[nH]1)C(=O)N2 [CBK018342]	57.7%	
CC(C)(C)OC(=O)NC1CCC(NCc2c[nH]c(-c3ccccc3)n2)CC1 (stereo not shown) [CBK056692]	80.9%	
O=S(=O)(Nc1cccc(-c2cnco2)c1)c1cccc2cccnc12 [CBK067104]	81%	
Cc1ccc(/C=N/N=C2/N=C(O)C(CC(=O)Nc3ccccc3C(F)(F)F)S2)o1 (stereo not shown) [CBK263731]	104%	
COc1cc(C2C(C(=O)c3cccs3)=C(O)C(=O)N2Cc2cccnc2)ccc1O (stereo not shown) [CBK264605]	110%	
O=C(Nc1ccccc1)N1Cc2nc[nH]c2C[C@H]1c1nc(-c2ccccc2)no1 [CBK288997]	84.3%	
CCc1cc(C(=O)OC)c(NC(=S)Nc2nc3cc(C)c(C)cc3s2)s1 [CBK267116]	81%	

Structure (SMILES)	viability at 28.5 h, 10 µM	viability at 28.5 h, 10 µM (bulk resorufin, single well)
Cc1cc(CN2CCC(N(C)Cc3nnc(C)n3C)C2)no1 (stereo not shown) [CBK305088]	96.6%	
Cc1noc(C)c1Cn1cc(NS(=O)(=O)c2cccs2)cn1 [CBK044394]	97.9%	
CN1Cc2ccccc2CC1C(=O)N1CCc2ncc(Cl)cc2C1 (stereo not shown) [CBK282568]	85.5%	
O=C(c1cc(C(F)(F)F)cc(C(F)(F)F)c1)N1CCC(O)(c2ccc(Cl)cc2)CC1 [CBK061972]	96.9%	
O=C(O)CC(Cc1ccccc1)(C(=O)O)c1ccccc1 (stereo not shown) [CBK287133]	77.8%	
O=C(CSc1nnc(CN2CCOCC2)n1-c1ccc(Cl)cc1)N1c2ccccc2SC2C=CC=CC21 (stereo not shown) [CBK268820]	91.3%	
COc1ccc(CCN(C)C(=O)CCCc2cc3ccccc3[nH]2)cc1OC [CBK051152]	93.7%	
O=C(NC(c1ccc(F)cc1)c1cccs1)c1ccccn1 (stereo not shown) [CBK295636]	106%	
Cc1cc(C)c(COc2nccnc2OC2CCN(CCCC#N)CC2)c(C)c1 [CBK161575]	91.6%	
COCCNC(=O)c1cc(-c2ccc(Cl)cc2)cnc1NS(C)(=O)=O [CBK106421]	94.4%	
Clc1cncc(-c2ccccc2)n1 [CBK113371]	93.8%	
CC(=O)Nc1ccc(NCc2csc(C3CCCO3)n2)c(C(F)(F)F)c1 (stereo not shown) [CBK304161]	101%	
CCc1cc2c(NC(CCSC)C(=O)O)nc(C)nc2s1 (stereo not shown) [CBK266709]	90.3%	
Cc1sc2c(c1C)c(=O)nc1scc(CC(=O)NCCO)n12 [CBK266726]	96.3%	
Cc1cn(C2CC(O)C(C3N(c4ccccc4)CCN3c3ccccc3)O2)c(=O)[nH]c1=O (stereo not shown) [CBK201232]	99.2%	
Cc1ccc2cc(CN3CCCC(N)CC3)c(N3CCOCC3)nc2c1 (stereo not shown) [CBK307693]	83.5%	
CS(=O)(=O)N1CC2(CCN(Cc3ccccc3)CC2)c2ccccc21 [CBK084003]	89.9%	
CC(C)[C@H](CO)Nc1nccnc1-c1ccccc1F [CBK037987]	106%	
O=C(OCc1ccccc1)N1CCC2(CC1)CN(c1ccc(C(F)(F)F)cn1)CCO2 [CBK161116T]	95.8%	
Cc1ccc(CN(CCCN(C)C)Cc2nc(C)n3ccccc23)o1 [CBK282482]	106%	
CC(C)N1CCC(CNC(=O)c2cccc(N3CCCC3=O)c2)CC1 [CBK282641]	104%	
O=C(CN1CCOCC1)N1CCC(F)CC1 [CBK200383]	83.5%	

Structure (SMILES)	viability at 28.5 h, 10 µM	viability at 28.5 h, 10 µM (bulk resorufin, single well)
CCOC(=O)c1c(NC(=O)CSc2nnnn2C)sc2c1CCCC2 [CBK007332]	103%	
CN(Cc1c(C2CCNCC2)[nH]c2ncccc12)C1CCCCC1 [CBK285079]	93.3%	
Cc1cnc(CNC(=O)N2CCc3ccccc3C2)cn1 [CBK155166]	97.3%	
Cc1cc2nnn(C[C@@H](C)NC(=O)c3ccco3)c2cc1C [CBK282366]	100%	
O=c1cc(CN2CCCc3ccccc32)[nH]c(=O)[nH]1 [CBK138331]	95.1%	
CN(C)CCN(C)c1cncc(-c2cccc(C(F)(F)F)c2)n1 [CBK065584]	115%	
O=S(=O)(Nc1cccc(C(F)(F)F)c1)c1ccc(OC(F)(F)F)cc1 [CBK043554]	86.3%	
O=c1[nH]c(=O)c2cc(S(=O)(=O)N3CCCC(CN4CCCC4)C3)ccc2[nH]1 (stereo not shown) [CBK286392]	88.8%	
Cn1nc(C2CCN(C(=O)CC3CCCC3)CC2)c2cccnc21 [CBK284943]	111%	
Cc1cc(C(F)F)nn1CC(=O)N1CCc2ncc(Cl)cc2C1 [CBK284853]	108%	
FC(F)(F)C1=NC(C(F)(F)F)=NP(N2CCOCC2)(N2CCOCC2)=N1 [CBK261042]	94.3%	
Cc1ccc(C(=O)N/C(=C\c2ccc3c(c2)OCO3)C(=O)NCC(=O)O)cc1 [CBK265669]	109%	
COc1ccc(C(=O)N2CCC(N(C)Cc3ccc(-c4ccc(S(C)(=O)=O)cc4)nc3)CC2)cc1Cl [CBK165991T]	95.8%	
COC(=O)c1ccc(N2CCN(Cc3nc(C)no3)C(C)C2)cc1 (stereo not shown) [CBK305998]	92.3%	
O=C(Nc1ccc(Br)c2cccnc12)c1ccc(Cn2cc(Cl)cn2)o1 [CBK265893]	88.2%	
N#Cc1cnccc1N1CC2COCCC2(C(=O)N2CCCC2)C1 (stereo not shown) [CBK304731]	83%	
Cc1ccc(NC(=O)OCCN2CCN(C)CC2)c(C)n1 [CBK200135]	106%	
Cc1ccc(S(=O)(=O)N(C)CCCC#N)cc1 [CBK085945]	106%	
CCN(CC)C(=O)Cn1ncc2c3sc(C)cc3n(C)c2c1=O [CBK284156]	92.9%	
O=C1c2ccccc2CN1c1cccc(Cl)c1Cl [CBK109916]	82.3%	
CCCC1CCCN(Cc2nnnn2-c2ccc(S(C)(=O)=O)cc2)C1 (stereo not shown) [CBK304142]	89.2%	
COc1ccc(N2C(=O)/C(=C/c3ccc(-c4cc(C(=O)O)ccc4Cl)o3)C(=O)NC2=S)cc1 [CBK263750]		97.8%

Structure (SMILES)	viability at 28.5 h, 10 µM	viability at 28.5 h, 10 µM (bulk resorufin, single well)
CCCOc1cccn2c(N(CC(=O)N(C)C)C(C)=O)c(CC)nc12 [CBK147850]	102%	
COC(=O)CCCCCSc1nc2ccc(O)c([N+](=O)[O-])c2s1 [CBK005867]	106%	
COc1cc(CNC(=O)c2cccnc2Sc2ccc(Cl)cc2)ccn1 [CBK297755]	108%	
CN(Cc1ccc2c(c1)OCCO2)C(=O)CSc1n[nH]c(=O)n1Cc1ccccc1 [CBK297876]	82.1%	
CC(=O)N1C[C@@H](c2ccsc2)[C@@H]2CN(Cc3ccccc3)CC[C@@H]21 [CBK284585]	109%	
CCN(CC)CCn1c2ccccc2c2nc(C)sc21 [CBK266628C]	100%	
CC(NC(=O)CSc1nnc(-c2ccc(Cl)cc2)n1-c1ccccc1)c1ccccc1 (stereo not shown) [CBK264993]	87%	
O=C(Nc1ccc(N2CCNCC2)c2ccccc12)c1cccnc1 [CBK036336T]	92.9%	
CC(C)Cn1c(=O)c(C(=O)Nc2ccccc2S(N)(=O)=O)c(O)c2ccccc21 [CBK262290]	93.1%	
CCc1ccc(NC(=O)N2CCCCC2CCn2ccnc2)cc1 (stereo not shown) [CBK307453]	110%	
Cc1ccc(-n2nc(C(=O)NC3(C#N)CCSC3)cc2C)cc1 (stereo not shown) [CBK306403]	86.9%	
CC(C)(C)OC(=O)NCCc1ccc(Nc2cc(-c3cc4ccccc4s3)ncn2)cc1 [CBK090959]	94.3%	
O=C(O)c1ccc(CNC(=O)c2ccc3c(c2)C(=O)N(CC2CCCO2)C3=O)cc1 (stereo not shown) [CBK264256]	98.4%	
Cc1ccc(NC(=O)c2nccc3ccccc23)c(C)n1 [CBK200294]	93.2%	
Cc1nc(C2CCCN(C(=O)c3cscn3)C2)c2sccn12 (stereo not shown) [CBK282236]	88.2%	
C=CCNC(=O)c1ccccc1NC(=O)Cc1ccc(Cl)cc1 [CBK270086]	101%	
COc1ccccc1N1CCN(c2nccc3sc(S(=O)(=O)NCc4ccc(C(F)(F)F)c(F)c4)cc23)CC1 [CBK038270C]	93.8%	
O=C(Nc1ccc(S(=O)(=O)Nc2ccc(Cl)c(C(F)(F)F)c2)cc1)c1ccc(CN2CCOCC2)cc1 [CBK264777]	104%	
CN(CC(=O)NNC(=O)c1cccs1)S(=O)(=O)c1ccc2ccccc2c1 [CBK267409]	90.8%	
CC(C)Nc1cc(Sc2ccc(F)cc2)ncn1 [CBK089498]	94.2%	
Cn1cc(C(=O)Nc2ccccc2N2CCNCC2)c2ccccc21 [CBK034141T]	92.2%	
Cc1onc(-c2ccccc2Cl)c1C(=O)N(C)C [CBK160325]	102%	
